Data taken from ChEMBL document CHEMBL1141742, “A Novel Insect Antifeedant Nonprotein Amino Acid from Calotropis gigantea” (1998).
The source made the active and inactive calls. The calls are words filed in the database; no cut-off is given here.

Key:
Schistocerca gregaria [1] = assay: Antifeedant activity against 5th instar nymphs of Schistocerca gregaria assessed as feeding reduction at 1.6 ug/cm'2 by maize leave choice feeding assay; assay type: functional; set-up: scale not given: the % may be the effect or the level left
Schistocerca gregaria [2] = assay: Antifeedant activity against 5th instar nymphs of Schistocerca gregaria assessed as feeding reduction at 3.2 ug/cm'2 by maize leave choice feeding assay; assay type: functional; set-up: scale not given: the % may be the effect or the level left
Schistocerca gregaria [3] = assay: Antifeedant activity against 5th instar nymphs of Schistocerca gregaria assessed as feeding reduction at 5 ug/cm'2 by maize leave choice feeding assay; assay type: functional; set-up: scale not given: the % may be the effect or the level left
Schistocerca gregaria [4] = assay: Antifeedant activity against 5th instar nymphs of Schistocerca gregaria assessed as feeding reduction at 6.6 ug/cm'2 by maize leave choice feeding assay; assay type: functional; set-up: scale not given: the % may be the effect or the level left
Schistocerca gregaria [5] = assay: Antifeedant activity against 5th instar nymphs of Schistocerca gregaria assessed as feeding reduction at 1 ng/cm'2 by filter paper based feeding assay; assay type: functional, organism-based

| Structure (SMILES) | Activity (Schistocerca gregaria [1]) [%] | Activity (Schistocerca gregaria [2]) [%] | Activity (Schistocerca gregaria [3]) [%] | Activity (Schistocerca gregaria [4]) [%] | Activity (Schistocerca gregaria [5]) |
| --- | --- | --- | --- | --- | --- |
| CCOC(=O)Nc1ccc([C@H](NC(C)=O)C(=O)O)cc1 [GIGANTICINE] | 55 | 68 | 80 | 90 |  |
| C/C=C(\C)C(=O)O[C@H]1C[C@@H](OC(C)=O)[C@@]2(C(=O)OC)CO[C@H]3[C@@H](O)[C@@](C)([C@]45O[C@@]4(C)[C@@H]4C[C@H]5O[C@@H]5OC=C[C@@]54O)[C@H]4[C@]1(CO[C@]4(O)C(=O)OC)[C@@H]32 |  |  |  |  | Active |
